Results: patent US10864178B2, “Pharmaceutical composition for treatment of cancer containing polyphenol compound as active ingredient” (priority 2016, dated 2020)

Tests used:
[1] = test system: SAGS (selected AGS); experiment: Proliferation inhibition, selected AGS cells with the nature of cancer stem cells; assay type: cell-based; conditions: Homo sapiens, read-out: IC50 concentration
Description: (§1) First, in order to examine the growth inhibitory effect of gossypol against stomach cancer stem cells, two types of common stomach cancer cells (AGS and MKN-74) and two types of stomach cancer stem cells (MKN-1 and SNU-484) were prepared. Each type of cells was cultured in a 96-well plate at a density of 1×10^3 to 1×10^4 cells/well for 24 hours, and treated with 0, 10, 20, 40 or 60 μM of gossypol, and then further cultured for 48 hours. […] Based on the measured absorbance, the IC50 concentration of gossypol, at which the survival rate of each type of cells, is measured, and the results are shown in FIGS. 6 and 7.
(§2) On selected AGS cells (hereinafter referred to as SAGS (selected AGS), Cell Death Dis. 2015 Jul. 2; 6:e1805) selected from the common stomach cancer cell line AGS (hereinafter referred to as PAGS (parental AGS)) by analyzing phenotypes, including the cancer stem cell marker expression, tumor spheroid formation and standard anticancer agent resistance of cancer cells that survived under 4 weeks of continuous metabolic stress, and tumor formation in immunosuppressed mice, the growth inhibitory effects of gossypol were examined. Cell culture and survival rate measurement methods were performed in the same manner as Example 2-1.

[2] = test system: stomach cancer stem cells (MKN-1 and SNU-484); experiment: Proliferation inhibition, average over stomach cancer stem cells; assay type: cell-based; conditions: average of MKN-1 and SNU-484; read-out: IC50 concentration, average
Description: as §1

[3] = test system: MKN-74; experiment: Proliferation inhibition of common stomach cancer cells, sulforhodamine B assay; assay type: cell-based; conditions: Homo sapiens; MKN-74 common stomach cancer cells; 48 hours; read-out: IC50 concentration
Description: as §1

[4] = test system: AGS; experiment: as above; assay type: cell-based; conditions: Homo sapiens, 48 hours, read-out: IC50 concentration
Description: as §1

[5] = test system: AGS; experiment: Cell cycle analysis, PI staining, FACS; assay type: cell-based, Human; conditions: 10 μM gossypol, 24 hours
Description: (§3) Each of the 6 different stomach cancer cells lines (MKN28, MKN45, AGS, SNU668, Kato3 and HS746T) (1×10^3 to 1×10^4 cells/well), described in Example 1-1 above, was cultured in a 100 mm culture dish for 24 hours, and treated with 0 or 10 μM of gossypol, and then further cultured for 24 hours. The cells treated with gossypol were harvested, fixed with 70% ethanol, washed with cold 1×PBS, and then stained with PI+RNase solution (DPBS, pH 7.4) in a dark room for 30 minutes. The cells were subjected to fluorescence activated cell sorting (FACS), and the percentage of each cell cycle was analyzed based on the content of DNA.

[6] = test system: MKN28; experiment: Cell cycle analysis, PI staining, FACS; assay type: cell-based, Human; conditions: 10 μM gossypol, 24 hours
Description: as §3

[7] = test system: HS746T; experiment: Cell cycle analysis, PI staining, FACS; assay type: cell-based, Human; conditions: 10 μM gossypol, 24 hours
Description: as §3

[8] = test system: MKN45; experiment: Cell cycle analysis, PI staining, FACS; assay type: cell-based, Human; conditions: 10 μM gossypol, 24 hours
Description: as §3

[9] = test system: common stomach cancer cells (MKN-74 and AGS); experiment: Proliferation inhibition, average over common stomach cancer cells; assay type: cell-based; conditions: Homo sapiens; average of MKN-74 and AGS; read-out: IC50 concentration, average
Description: as §1

[10] = test system: MKN45 (poorly differentiated cells); experiment: Cell death, Annexin V+PI staining, FACS; assay type: cell-based, Human
Description: (§4) Each of MKN28 (moderately differentiated cells) and MKN45 (poorly differentiated cells) cell lines (1×10^3 to 1×10^4 cells/plate), described in Example 1-1 above, was cultured in a 100 mm culture dish for 24 hours, and treated with 0, 5, 10 or 20 μM of gossypol, and then diluted in 400 μl of binding buffer (0.1 M Hepes, pH 7.4, 1.4 M NaCl, and 25 mM CaCl2)). The control cells treated with 0 μM of gossypol were divided into four groups which were not stained, stained with Annexin V, stained with PI (propidium iodide) and stained with Annexin V+PI, respectively, and the cells treated with 5, 10 or 20 μM of gossypol were stained with Annexin V+PI. Staining of the cells was performed in a dark room for 10 minutes. The stained cells were subjected to fluorescence activated cell sorting (FACS), thereby determining the ratio of dead cells to total cells. The results are shown in FIGS. 3 and 4 (BD Biosciences, #556547).

[11] = test system: MKN28 (moderately differentiated cells); experiment: Cell death, Annexin V+PI staining, FACS; assay type: cell-based, Human
Description: as §4

[12] = test system: MKN-1; experiment: Proliferation inhibition of stomach cancer stem cells, sulforhodamine B assay; assay type: cell-based; conditions: Homo sapiens; MKN-1 stomach cancer stem cells; 48 hours; read-out: IC50 concentration
Description: as §1

[13] = test system: SNU-484; experiment: as above; assay type: cell-based; conditions: SNU-484 stomach cancer stem cells; 48 hours; read-out: IC50 concentration
Description: as §1

[14] = test system: stomach cancer cell lines (MKN28, MKN45 and SNU668); experiment: ATP synthesis inhibition (Promega ATP assay kit); assay type: cell-based, Human; conditions: 0, 10 or 20 μM of gossypol, 48 hours
Description: ATP (adenosine triphosphate) is an energy source for organisms, and inhibition of intracellular ATP synthesis leads to a decrease in energy metabolism activity. The ATP synthesis inhibitory effects of gossypol on the stomach cancer cell lines (MKN28, MKN45 and SNU668) described in Example 1-1 were examined.
Each of MKN28, MKN45 and SNU668 cell lines (1×10^3 to 1×10^4 cells/plate) was cultured in a 60 mm culture dish for 24 hours, treated with 0, 10 or 20 μM of gossypol, and then additionally cultured for 48 hours. Next, the cells were harvested, counted, diluted in 100 μl of RPMI buffer containing 10 vol % FBS, and then transferred to each well of 96-well plate. To each well containing the cells, 100 μl of assay buffer (rL/L reagent+reconstitution buffer) in the Promega ATP assay kit (G7572, Promega, […]., USA) was added, after which the emission of fluorescence was determined by measuring the absorbance at 560 nm.

[15] = test system: SNU668; experiment: Proliferation inhibition, sulforhodamine B assay; assay type: cell-based; conditions: Homo sapiens, 48 hours treatment
Description: (§5) In order to examine the proliferation inhibitory effects of gossypol against stomach cancer cell lines, 6 different stomach cancer cell lines (MKN28, MKN45, AGS, SNU668, Kato3 and HS746T) were prepared. The definition of cell lines known in the Korean Cell Line Bank or the American Type Culture Collection (ATCC) is described in Table 1 below.
(§6) Each of the 6 different cell lines (1×10^3 to 1×10^4 cells/well) was cultured in a 96-well plate for 24 hours, and treated with 0, 10, 20, 40 or 60 μM of gossypol, and then further cultured for 48 hours.

[16] = test system: AGS; experiment: Proliferation inhibition, sulforhodamine B assay; assay type: cell-based; conditions: Homo sapiens, 48 hours treatment
Description: as §5, §6

[17] = test system: MKN28; experiment: Proliferation inhibition, sulforhodamine B assay; assay type: cell-based; conditions: Homo sapiens, MKN-28, 48 hours treatment
Description: as §5, §6

[18] = test system: HS746T; experiment: Proliferation inhibition, sulforhodamine B assay; assay type: cell-based; conditions: Homo sapiens, 48 hours treatment
Description: as §5, §6

[19] = test system: MKN45; experiment: Proliferation inhibition, sulforhodamine B assay; assay type: cell-based; conditions: Homo sapiens, MKN-45, 48 hours treatment
Description: as §5, §6

[20] = test system: Kato3; experiment: Proliferation inhibition, sulforhodamine B assay; assay type: cell-based; conditions: Homo sapiens, 48 hours treatment
Description: as §5, §6

[21] = test system: PAGS (parental AGS); experiment: Proliferation inhibition, parental AGS cells; assay type: cell-based; conditions: Homo sapiens, read-out: IC50 concentration
Description: as §1, §2

Cc1cc2c(C(C)C)c(O)c(O)c(C=O)c2c(O)c1-c1c(C)cc2c(C(C)C)c(O)c(O)c(C=O)c2c1O [gossypol]
IC50 [1]: 2.8 µM
IC50 [2]: 2.65 µM
IC50 [3]: 5.6 µM
IC50 [4]: 4.5 µM
sum of sub G1 and GO/G1 compared to before treatment [5]: increased
sum of sub G1 and GO/G1 compared to before treatment [6]: decreased
sum of sub G1 and GO/G1 compared to before treatment [7]: increased
sum of sub G1 and GO/G1 compared to before treatment [8]: increased
IC50 [9]: 5.05 µM
cell death percentage ([10]; 5 μM gossypol): 45.75%
cell death percentage ([10]; 10 μM gossypol): 65.8%
cell death percentage ([10]; 20 μM gossypol): 82.22%
cell death percentage ([11]; 5 μM gossypol): 17.72%
cell death percentage ([11]; 10 μM gossypol): 28.85%
cell death percentage ([11]; 20 μM gossypol): 55.62%
IC50 [12]: 2.6 µM
IC50 [13]: 2.7 µM
ATP synthesis [14]: inhibited in proportion to the concentration of gossypol
GI50 [15]: 4.11 µM
GI50 [16]: 6.43 µM
GI50 [17]: 5.32 µM
GI50 [18]: 9.89 µM
GI50 [19]: 4.65 µM
GI50 [20]: 3.15 µM
IC50 [21]: 4.2 µM
